Measurements taken from patent EP4685143A1 (Vivozon,Inc., priority 2023, dated 2024).

Assays:
[1] = target: T1, human HDAC6 enzyme (Homo sapiens, UniProt Q9UBN7); assay: Fluorescence-based enzyme activity assay; type: biochemical; conditions: substrate with fluorescent peptide of p53 residues 379-382, 30°C for 1 hour
T1 sequence (Q9UBN7 1-1215): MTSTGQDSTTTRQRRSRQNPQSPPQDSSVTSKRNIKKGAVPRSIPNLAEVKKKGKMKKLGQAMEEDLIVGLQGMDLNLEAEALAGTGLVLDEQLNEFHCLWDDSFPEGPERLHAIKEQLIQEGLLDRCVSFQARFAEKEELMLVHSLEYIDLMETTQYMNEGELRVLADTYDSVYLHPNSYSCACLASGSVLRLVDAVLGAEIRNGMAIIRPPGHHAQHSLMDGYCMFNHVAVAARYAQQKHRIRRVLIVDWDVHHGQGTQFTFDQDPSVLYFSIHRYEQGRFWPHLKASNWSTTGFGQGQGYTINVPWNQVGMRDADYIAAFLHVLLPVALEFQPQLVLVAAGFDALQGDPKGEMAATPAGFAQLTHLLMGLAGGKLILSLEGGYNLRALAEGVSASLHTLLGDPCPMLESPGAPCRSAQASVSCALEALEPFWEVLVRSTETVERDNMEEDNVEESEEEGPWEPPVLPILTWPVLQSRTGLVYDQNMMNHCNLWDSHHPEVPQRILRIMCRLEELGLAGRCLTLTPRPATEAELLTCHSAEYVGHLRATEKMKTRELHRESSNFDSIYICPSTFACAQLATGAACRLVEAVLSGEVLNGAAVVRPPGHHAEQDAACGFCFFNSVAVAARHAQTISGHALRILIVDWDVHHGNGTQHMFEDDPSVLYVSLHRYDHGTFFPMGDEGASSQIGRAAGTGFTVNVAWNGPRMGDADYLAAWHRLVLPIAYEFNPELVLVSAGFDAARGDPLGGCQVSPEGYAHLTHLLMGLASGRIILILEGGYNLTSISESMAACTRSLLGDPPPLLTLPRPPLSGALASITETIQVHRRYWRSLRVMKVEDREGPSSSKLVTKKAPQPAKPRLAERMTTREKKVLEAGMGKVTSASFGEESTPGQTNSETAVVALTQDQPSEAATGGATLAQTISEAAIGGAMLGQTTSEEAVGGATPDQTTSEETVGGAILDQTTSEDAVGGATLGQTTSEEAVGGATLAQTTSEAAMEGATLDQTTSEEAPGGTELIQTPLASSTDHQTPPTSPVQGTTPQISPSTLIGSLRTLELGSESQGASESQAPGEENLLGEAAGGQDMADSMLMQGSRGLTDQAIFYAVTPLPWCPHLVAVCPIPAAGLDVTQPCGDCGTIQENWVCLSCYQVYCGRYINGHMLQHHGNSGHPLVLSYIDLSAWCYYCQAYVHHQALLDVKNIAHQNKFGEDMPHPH
Description: Experimental Example 1: Fluorescence-based enzyme activity assay
In order to measure the inhibitory effect of the compounds on the activity of histone deacetylase 6 (HDAC6), an enzyme activity assay was performed to evaluate the enzyme activity by reacting the human HDAC6 enzyme with a substrate to which a fluorescent peptide of p53 residues 379-382 was attached. The test compounds were dissolved in 100% DMSO at a concentration of 10 mM to prepare a stock solution. A starting concentration of 30 µM was prepared from the stock solution, followed by 1/3 serial dilutions to prepare the test buffer solution. Trichostatin A (TSA)-which is the reference compound used to confirm the validity of the experiment-was serially diluted by 1/3 with the test buffer solution, starting from the highest concentration of 1 µM. To react the test compounds and TSA prepared in the test buffer with the HDAC6 enzyme, they were dispensed into a 96-well black plate and spin-down of the plate was performed. Then, the reaction was carried out at room temperature for 10 minutes. After 10 minutes, the substrate was dispensed, and the plate was sealed. The reaction was carried out at 30°C for 1 hour under light-blocking conditions. Fluorescence values were measured using a plate reader (wavelength: excitation/emission = 360/460 nm). The fluorescence measurements were normalized to the HDAC6 enzyme-treated group as 100% and the untreated group as 0%, respectively. […]

[2] = target: T2, Human mGluR5 (Homo sapiens, UniProt P41594); assay: Fluorescence-based Ca2+ mobilization assay; conditions: HEK293 cell line permanently overexpressing mGluR5, Ca2+ level change induced by L-glutamate at EC80 concentration, FLIPR Tetra
T2 construct: expressed in transfected cells; host or cells: HEK293
Description: Experimental Example 2: Fluorescence-based Ca^2+ mobilization assay
In order to measure the activity of the antagonist on the mGluR5, an experiment was carried out to check the change in the intracellular Ca^2+ level using the HEK293 cell line permanently overexpressing the mGluR5. The cells in the cell culture medium were aliquoted into a 384-well plate coated with poly-D-lysine and cultured in a 37°C incubator supplied with 5% CO2. The next day, the medium was removed and a dye loading buffer-in which a reagent capable of measuring Ca^2+ was dissolved-was added, and then incubated at 37°C for 60 minutes. The test compounds were dissolved in 100% DMSO at a final concentration of 10 mM to make a stock solution. The starting concentration of 10 µM was prepared from the stock solution, followed by serial dilutions to prepare working solutions (test compound working solutions). The test compound working solutions were added to the cells that were incubated in the dye loading buffer, which were maintained for 30 minutes at room temperature in a light-shielding state before measurement. The Ca^2+ level change induced by L-glutamate at EC80 concentration was measured for 2 minutes using FLIPR Tetra (MDS Analytical Technologies). The fluorescent Ca^2+ signal values in the presence of the test compounds were normalized to the fluorescent signal elicited by EC80 concentration of L-glutamate as 100% and that elicited by vehicle as 0% to estimate % inhibition of the test compounds. […]

T2 sequence (P41594 21-1212): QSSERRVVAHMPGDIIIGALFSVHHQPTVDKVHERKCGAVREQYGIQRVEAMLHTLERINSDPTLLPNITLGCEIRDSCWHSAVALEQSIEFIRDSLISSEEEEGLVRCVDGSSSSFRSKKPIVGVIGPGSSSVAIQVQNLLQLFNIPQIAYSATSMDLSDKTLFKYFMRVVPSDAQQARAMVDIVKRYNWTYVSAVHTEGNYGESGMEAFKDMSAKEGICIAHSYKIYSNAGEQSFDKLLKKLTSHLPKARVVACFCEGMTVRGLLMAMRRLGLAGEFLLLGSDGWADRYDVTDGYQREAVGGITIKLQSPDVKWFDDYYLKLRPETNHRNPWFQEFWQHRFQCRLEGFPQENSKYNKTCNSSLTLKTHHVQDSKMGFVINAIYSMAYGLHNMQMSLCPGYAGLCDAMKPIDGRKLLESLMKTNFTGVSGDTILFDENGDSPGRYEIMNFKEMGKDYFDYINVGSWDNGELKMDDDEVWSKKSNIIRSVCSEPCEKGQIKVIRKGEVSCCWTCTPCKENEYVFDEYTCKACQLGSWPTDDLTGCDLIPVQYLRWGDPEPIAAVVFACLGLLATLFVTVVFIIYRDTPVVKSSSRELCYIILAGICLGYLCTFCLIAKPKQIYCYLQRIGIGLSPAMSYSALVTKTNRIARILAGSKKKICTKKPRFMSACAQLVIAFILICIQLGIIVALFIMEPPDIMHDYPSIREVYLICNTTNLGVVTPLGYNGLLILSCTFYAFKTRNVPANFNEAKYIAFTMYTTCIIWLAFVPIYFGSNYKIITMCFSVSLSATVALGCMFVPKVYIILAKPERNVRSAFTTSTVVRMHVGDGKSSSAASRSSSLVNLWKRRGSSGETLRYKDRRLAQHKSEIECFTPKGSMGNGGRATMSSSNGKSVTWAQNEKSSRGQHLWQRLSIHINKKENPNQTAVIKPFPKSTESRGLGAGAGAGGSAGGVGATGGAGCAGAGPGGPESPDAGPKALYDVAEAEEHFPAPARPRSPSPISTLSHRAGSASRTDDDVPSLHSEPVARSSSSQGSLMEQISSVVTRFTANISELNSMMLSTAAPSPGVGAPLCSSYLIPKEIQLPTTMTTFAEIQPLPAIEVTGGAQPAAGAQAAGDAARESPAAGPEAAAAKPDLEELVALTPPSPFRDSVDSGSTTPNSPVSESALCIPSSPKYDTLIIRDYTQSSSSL

Row | SMILES | IC50 [1] [nM] | IC50 [2] [nM]
1 | O=c1cc(-c2noc(C(F)(F)F)n2)ccn1CC#Cc1cccc(Cl)c1 [Example 7, 1-(3-(3-chlorophenyl)prop-2-yn-1-yl)-4-(5-(trifluoromethyl)-1,2,4-oxadiazol-3-yl)pyridine-2(1H)-one] | 500 to 1000 | 1000 to 2000
2 | O=c1cc(-c2nnc(C(F)F)o2)ccn1CC#Cc1cccc(Cl)c1 [Example 15, 1-(3-(3-chlorophenyl)prop-2-yn-1-yl)-4-(5-(difluoromethyl)-1,3,4-oxadiazol-2-yl)pyridin-2(1H)-one] | < 100 | 500 to 1000
3 | Cc1ccc(C#CCn2ccc(-c3nnc(C(F)F)o3)cc2=O)cc1 [Example 17, 4-(5-(difluoromethyl)-1,3,4-oxadiazol-2-yl)-1-(3-(p-tolyl)prop-2-yn-1-yl)pyridin-2(1H)-one] | 100 to 500 | 1000 to 2000
4 | Cc1cccc(C#CCn2ccc(-c3nnc(C(F)F)o3)cc2=O)c1 [Example 18, 4-(5-(difluoromethyl)-1,3,4-oxadiazol-2-yl)-1-(3-(m-tolyl)prop-2-yn-1-yl)pyridin-2(1H)-one] | < 100 | 1000 to 2000
5 | O=c1cc(-c2nnc(C(F)F)o2)ccn1CC#Cc1cccc(C(F)(F)F)c1 [Example 19, 4-(5-(difluoromethyl)-1,3,4-oxadiazol-2-yl)-1-(3-(3-(trifluoromethyl)phenyl)prop-2-yn-1-yl)pyridin-2(1H)-one] | 100 to 500 | 1000 to 2000
6 | O=c1cc(-c2nnc(C(F)F)o2)ccn1CC#Cc1cccc(OC(F)(F)F)c1 [Example 20, 4-(5-(difluoromethyl)-1,3,4-oxadiazol-2-yl)-1-(3-(3-(trifluoromethoxy)phenyl)prop-2-yn-1-yl)pyridin-2(1H)-one] | 100 to 500 | 1000 to 2000
7 | O=c1cc(-c2nnc(C(F)F)o2)ccn1CC#Cc1ccnc(Cl)c1 [Example 23, 1-(3-(2-chloropyridin-4-yl)prop-2-yn-1-yl)-4-(5-(difluoromethyl)-1,3,4-oxadiazol-2-yl)pyridin-2(1H)-one] | < 100 | 1000 to 2000
8 | Cc1cccc(C#CCn2ccc(-c3nnc(C(F)F)o3)cc2=O)n1 [Example 24, 4-(5-(difluoromethyl)-1,3,4-oxadiazol-2-yl)-1-(3-(6-methylpyridin-2-yl)prop-2-yn-1-yl)pyridin-2(1H)-one] | < 100 | 500 to 1000
9 | O=c1cc(-c2nnc(C(F)F)o2)ccn1CC#Cc1cccc(Br)c1 [Example 25, 1-(3-(3-bromophenyl)prop-2-yn-1-yl)-4-(5-(difluoromethyl)-1,3,4-oxadiazol-2-yl)pyridin-2(1H)-one] | 100 to 500 | 500 to 1000
10 | O=c1cc(-c2nnc(C(F)F)o2)ccn1CC#Cc1cccc(C(F)F)c1 [Example 26, 4-(5-(difluoromethyl)-1,3,4-oxadiazol-2-yl)-1-(3-(3-(difluoromethyl)phenyl)prop-2-yn-1-yl)pyridin-2(1H)-one] | – | 500 to 1000
11 | O=c1cc(-c2nnc(C(F)F)o2)ccn1CC#Cc1cccc(OC(F)F)c1 [Example 27, 1-(3-(3-(difluoromethoxy)phenyl)prop-2-yn-1-yl)-4-(5-(difluoromethyl)-1,3,4-oxadiazol-2-yl)pyridin-2(1H)-one] | < 100 | 1000 to 2000
12 | O=c1cc(-c2nnc(C(F)(F)F)o2)ccn1CC#Cc1cccc(Cl)c1 [Example 28, 1-(3-(3-chlorophenyl)prop-2-yn-1-yl)-4-(5-(trifluoromethyl)-1,3,4-oxadiazol-2-yl)pyridin-2(1H)-one] | 500 to 1000 | 1000 to 2000
13 | O=c1cc(-c2noc(C(F)F)n2)ccn1CC#Cc1cccc(Cl)c1 [Example 30, 1-(3-(3-chlorophenyl)prop-2-yn-1-yl)-4-(5-(difluoromethyl)-1,2,4-oxadiazol-3-yl)pyridin-2(1H)-one] | 500 to 1000 | 500 to 1000
14 | N#Cc1cccc(C#CCn2ccc(-c3nnc(C(F)F)o3)cc2=O)c1 [Example 31, 3-(3-(4-(5-(difluoromethyl)-1,3,4-oxadiazol-2-yl)-2-oxopyridin-1(2H)-yl)prop-1-yn-1-yl)benzonitrile] | < 100 | 500 to 1000
15 | O=c1cc(-c2nnc(C(F)F)o2)ccn1CC#Cc1cc(Cl)ccc1F [Example 36, 1-(3-(5-chloro-2-fluorophenyl)prop-2-yn-1-yl)-4-(5-(difluoromethyl)-1,3,4-oxadiazol-2-yl)pyridin-2(1H)-one] | 100 to 500 | 1000 to 2000
16 | CCC(C#Cc1cccc(Cl)c1)Oc1cc(-c2nnc(C(F)F)o2)ccn1 (stereo not drawn) [Example 44] | – | 1000 to 2000
17 | Cc1cc(-c2nnc(C(F)F)o2)cc(=O)n1CC#Cc1cccc(Cl)c1 [Example 45, 1-(3-(3-chlorophenyl)prop-2-yn-1-yl)-4-(5-(difluoromethyl)-1,3,4-oxadiazol-2-yl)-6-methylpyridin-2(1H)-one] | 100 to 500 | 500 to 1000
18 | O=c1cc(-c2nnc(C(F)F)o2)c(Br)cn1CC#Cc1cccc(Cl)c1 [Example 46, 5-bromo-1-(3-(3-chlorophenyl)prop-2-yn-1-yl)-4-(5-(difluoromethyl)-1,3,4-oxadiazol-2-yl)pyridin-2(1H)-one] | – | 500 to 1000
